Substitutions are numbered along the chain they refer to.
Experiments:
ZCCHC4_24-513 [1] = molecular target: T1, ZCCHC4_24-513 (Homo sapiens, UniProt Q9H5U6); assay: isothermal titration calorimetry; type: binding
T1 construct: gene ZCCHC4; residues 24-513; His6-SUMO tag cleaved by ULP1; E. coli BL21(DE3) RIL; monomer in solution
T1 sequence (Q9H5U6 24-513): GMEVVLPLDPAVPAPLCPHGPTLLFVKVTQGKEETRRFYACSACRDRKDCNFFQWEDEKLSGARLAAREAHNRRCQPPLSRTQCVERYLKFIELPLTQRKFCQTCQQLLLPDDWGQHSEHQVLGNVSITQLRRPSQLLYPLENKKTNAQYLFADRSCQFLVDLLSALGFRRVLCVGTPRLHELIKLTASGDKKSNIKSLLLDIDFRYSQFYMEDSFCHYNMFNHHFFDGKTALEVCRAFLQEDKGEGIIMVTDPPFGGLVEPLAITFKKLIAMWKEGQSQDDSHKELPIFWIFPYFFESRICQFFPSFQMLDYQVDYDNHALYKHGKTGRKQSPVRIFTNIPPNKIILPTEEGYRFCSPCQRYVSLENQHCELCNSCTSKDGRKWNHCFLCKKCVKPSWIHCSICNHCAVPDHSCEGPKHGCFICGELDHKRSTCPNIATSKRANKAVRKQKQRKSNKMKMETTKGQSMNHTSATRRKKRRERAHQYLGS

ZCCHC4_24-513 [2] = molecular target: T2, ZCCHC4_24-513 (Homo sapiens, UniProt Q9H5U6, H343A); assay: isothermal titration calorimetry; type: binding
T2 construct: gene ZCCHC4; residues 24-513; His6-SUMO tag cleaved by ULP1; E. coli BL21(DE3) RIL; monomer in solution
T2 sequence (Q9H5U6 24-513 H343A): T1 sequence (Q9H5U6 24-513) with H320A

ZCCHC4_24-464 = molecular target: T3, ZCCHC4_24-464 (Homo sapiens, UniProt Q9H5U6, K55A/E56A/E57A/K167A/K168A); assay: X-ray crystal structure, […] Å; type: binding; settings: cofactor pocket of the MTase domain; no RNA
T3 construct: gene ZCCHC4; core fragment, residues 24-464, five surface mutations for crystallization; His6-SUMO tag cleaved by ULP1; E. coli BL21(DE3) RIL
T3 sequence (Q9H5U6 24-464 K55A/E56A/E57A/K167A/K168A): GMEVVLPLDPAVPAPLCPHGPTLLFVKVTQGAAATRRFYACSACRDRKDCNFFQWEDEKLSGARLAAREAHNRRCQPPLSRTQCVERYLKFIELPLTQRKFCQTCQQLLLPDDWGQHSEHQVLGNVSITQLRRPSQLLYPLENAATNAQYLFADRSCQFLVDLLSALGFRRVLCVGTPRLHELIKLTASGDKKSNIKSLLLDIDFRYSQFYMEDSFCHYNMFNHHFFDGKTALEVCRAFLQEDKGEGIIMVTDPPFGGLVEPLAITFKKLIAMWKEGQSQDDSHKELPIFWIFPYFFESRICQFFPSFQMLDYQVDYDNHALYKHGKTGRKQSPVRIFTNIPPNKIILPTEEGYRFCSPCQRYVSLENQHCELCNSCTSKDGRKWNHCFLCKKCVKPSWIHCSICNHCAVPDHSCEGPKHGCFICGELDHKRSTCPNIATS

ZCCHC4 24-464 WT (core) = molecular target: T4, ZCCHC4 24-464 WT (core) (human, UniProt Q9H5U6 24-464); assay: EMSA; EMSA: 20 mM Tris-HCl pH 7.5, 100 mM NaCl, 5% glycerol, 1 mM DTT, 4 C, 1 h; 0.3 uM RNA with 0-1.2 uM protein unless noted; 6% TBE native gel; settings: protein: recombinant; tags: His6-SUMO removed by ULP1; label: none (SYBR Gold stain); stem-loop with tail
T4 sequence: T3 sequence (Q9H5U6 24-464 K55A/E56A/E57A/K167A/K168A) with A32K, A33E, A34E, A144K, A145K

Question: Which results are given for `C[S+](CC[C@H](N)C(=O)O)C[C@H]1O[C@@H](n2cnc3c(N)ncnc32)[C@H](O)[C@@H]1O` (stereo partly shown) [SAM]?
Answer: Kd (ZCCHC4_24-513 [1]): 6.7 µM; Kd (ZCCHC4_24-513 [2]): 1600 nM

Question: How did the “X-ray crystal structure, 3.1 Å” value (ZCCHC4_24-464) turn out when `Nc1ncnc2c1ncn2[C@@H]1O[C@H](CSCC[C@H](N)C(=O)O)[C@@H](O)[C@H]1O` [SAH] was run?
Answer: Its value is “in complex with S-adenosyl-L-homocysteine (SAH)”.

Question: Does CGGUACACCUGUCAAACGGUAACGCAGGUG (structured_RNA) [30-mer 28S rRNA] bind (ZCCHC4 24-464 WT (core))?
Answer: Result: binds
